This passage reports IC50 results from patent US20220153734A1, “Pyrazolopyridine Compounds For IRE1 Inhibition” (Optikira, LLC, priority 2019, published 2022).

Experiment [1] concerns ARPE-19 cells stably expressing XBP1 (a.a. 1-376). Briefly: Cellular XBP1 splicing assay (NanoLuc luciferase, thapsigargin). The settings on record: Homo sapiens, ARPE-19, 4 h, thapsigargin 150 nM. It counts as cell-based. Put shortly: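 ARPE-19 cells carrying an XBP1(1-376)-NanoLuc splicing reporter were pretreated with compound (10-point ½-log series, 0.117% DMSO) for 30 min, then stressed with 150 nM thapsigargin for 4 h at 37° C. Luminescence was read, and IC50 values came from sigmoidal fits of percent inhibition of control.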

The target of experiment [2] is T1, IRE1α (Homo sapiens, UniProt O75460).
T1 construct: purchased Signal Chem E31-11G
T1 sequence (O75460 468-977 limits assumed): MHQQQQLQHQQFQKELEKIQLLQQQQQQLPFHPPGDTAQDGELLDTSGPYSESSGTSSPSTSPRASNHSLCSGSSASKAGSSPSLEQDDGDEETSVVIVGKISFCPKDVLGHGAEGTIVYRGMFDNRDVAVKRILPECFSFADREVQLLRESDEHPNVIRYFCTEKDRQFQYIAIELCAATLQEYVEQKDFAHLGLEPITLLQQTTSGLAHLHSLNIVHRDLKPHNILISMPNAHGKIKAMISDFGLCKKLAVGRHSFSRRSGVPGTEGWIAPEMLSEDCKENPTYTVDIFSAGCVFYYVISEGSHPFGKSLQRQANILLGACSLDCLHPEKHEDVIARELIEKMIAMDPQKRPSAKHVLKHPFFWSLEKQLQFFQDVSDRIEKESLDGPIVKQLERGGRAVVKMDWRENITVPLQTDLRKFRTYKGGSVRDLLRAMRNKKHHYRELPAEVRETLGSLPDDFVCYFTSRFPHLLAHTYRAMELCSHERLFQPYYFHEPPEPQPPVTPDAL
Briefly: Biochemical assay: inhibition of RNase activity of IRE1α. The settings on record: enzyme 0.325 nM, substrate 100 nM, 20 minutes. In a few lines: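 Recombinant IRE1α (0.325 nM final) pre-incubated 30 min at room temperature with compounds (10-point ½-log series, duplicate, 4% DMSO final). Then 100 nM fluorophore/quencher-labelled RNA substrate added in 50 mM Tris, 0.5 mM MgCl2, 10 mM KCl, 2 mM DTT. Urea stop after 20 min; fluorescence read; IC50 from sigmoidal fit.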

As for `COCCN[C@H]1CC[C@H](c2cnc(N)c3c(-c4cc(F)c(NS(=O)(=O)c5cccc(OC)c5F)cc4F)nn(C(C)C)c32)CC1` [Compound A7, N-(4-(4-amino-1-isopropyl-7-((1r,4r)-4-((2-methoxyethyl)amino)cyclohexyl)-1H-pyrazolo[4,3-c]pyridin-3-yl)-2,5-difluorophenyl)-2-fluoro-3-methoxybenzenesulfonamide], the IC50 (usually the concentration needed to halve the response being measured) amounted to 24 nM in experiment [1] and 2.9 nM in experiment [2].

For `CCOc1ccc(F)c(S(=O)(=O)Nc2cc(F)c(-c3nn(C(C)C)c4c3c(N)ncc4[C@H]3CC[C@H](NCCOC)CC3)cc2F)c1` [Compound A8, N-(4-(4-amino-1-isopropyl-7-((1r,4r)-4-((2-methoxyethyl)amino)cyclohexyl)-1H-pyrazolo[4,3-c]pyridin-3-yl)-2,5-difluorophenyl)-5-ethoxy-2-fluorobenzenesulfonamide], the IC50 was 3.9 nM in experiment [1] and 1.9 nM in experiment [2].

`COCCN[C@H]1CC[C@H](c2cnc(N)c3c(-c4cc(F)c(NS(=O)(=O)c5ccc(OC)cc5)cc4F)nn(C(C)C)c32)CC1` [Compound A9, N-(4-(4-amino-1-isopropyl-7-((1r,4r)-4-((2-methoxyethyl)amino)cyclohexyl)-1H-pyrazolo[4,3-c]pyridin-3-yl)-2,5-difluorophenyl)-4-methoxybenzenesulfonamide]: the IC50 in experiment [1] stood at 110 nM; in experiment [2], 20 nM.

With `COCCN[C@H]1CC[C@H](c2cnc(N)c3c(-c4cc(F)c(NS(=O)(=O)c5ccccc5OC)cc4F)nn(C(C)C)c32)CC1` [Compound A10, N-(4-(4-amino-1-isopropyl-7-((1r,4r)-4-((2-methoxyethyl)amino)cyclohexyl)-1H-pyrazolo[4,3-c]pyridin-3-yl)-2,5-difluorophenyl)-2-methoxybenzenesulfonamide], the IC50 amounted to 19 nM in experiment [1] and 240 nM in experiment [2].

Take `COCCN[C@H]1CC[C@H](c2cnc(N)c3c(-c4cc(F)c(NS(=O)(=O)c5cccc(OC)c5)cc4F)nn(C(C)C)c32)CC1` [Compound A11, N-(4-(4-amino-1-isopropyl-7-((1r,4r)-4-((2-methoxyethyl)amino)cyclohexyl)-1H-pyrazolo[4,3-c]pyridin-3-yl)-2,5-difluorophenyl)-3-methoxybenzenesulfonamide]: the IC50 was 15 nM in experiment [1] and 8.9 nM in experiment [2].

With `CC(C)n1nc(-c2ccc(NS(=O)(=O)c3ccccc3F)c(F)c2)c2c(N)ncc([C@H]3CC[C@@H](NC4COC4)CC3)c21` [Compound A12, N-(4-(4-amino-1-isopropyl-7-((1s,4s)-4-(oxetan-3-ylamino)cyclohexyl)-1H-pyrazolo[4,3-c]pyridin-3-yl)-2-fluorophenyl)-2-fluorobenzenesulfonamide], the IC50 in experiment [1] came to 1400 nM; in experiment [2], 440 nM.

Regarding `COCCN[C@H]1CC[C@H](c2cnc(N)c3c(-c4cc(F)c(NS(=O)(=O)c5ccc(F)c(OC)c5)cc4F)nn(C(C)C)c32)CC1` [Compound A13, N-(4-(4-amino-1-isopropyl-7-((1r,4r)-4-((2-methoxyethyl)amino)cyclohexyl)-1H-pyrazolo[4,3-c]pyridin-3-yl)-2,5-difluorophenyl)-4-fluoro-3-methoxybenzenesulfonamide], the IC50 worked out at 78 nM in experiment [1] and 17 nM in experiment [2].

`COCCN[C@H]1CC[C@H](c2cnc(N)c3c(-c4cc(F)c(NS(=O)(=O)c5ccc(Cl)cc5)cc4F)nn(C(C)C)c32)CC1` [Compound A14, N-(4-(4-amino-1-isopropyl-7-((1r,4r)-4-((2-methoxyethyl)amino)cyclohexyl)-1H-pyrazolo[4,3-c]pyridin-3-yl)-2,5-difluorophenyl)-4-chlorobenzenesulfonamide]: the IC50 was 240 nM in experiment [1] and 21 nM in experiment [2].
